According to patent US8470856B2, “Anthranilamide compounds, process for their production and pesticides containing them” (Ishihara Sangyo Kaisha, Ltd., priority 2004, dated 2013):
Several values for one entry are separate records, joined by “and”; a condition that tells them apart may be missing. Equal entries are not always repeated.

Columns and labels:
Type in all cases: in vivo
[1] = system: Haemaphysalis longicornis; assay: Controlling effects against Haemaphysalis longicornis, knockdown of larval ticks in treated petri dish; conditions: 1 ml acetone solution 10 μg/ml on petri dish, 25° C., operation repeated twice (two values)
Method: Test on Controlling Effects Against Haemaphysalis longicornis
On an inner surface of a petri dish having diameter of 9 cm, 1 ml of an acetone solution of a sample compound (concentration: 10 μg/ml) was dropwise applied by a micropipette. On the other hand, as a control section, 1 ml of acetone was dropwise applied in the same manner. The inner surface of the petri dish was dried, and then about 100 larval ticks were put, and the petri dish was covered with a polyethylene sheet and sealed with an elastic band. Thereafter, except for the observation time, the petri dish was left to stand at a constant temperature of 25° C. under a relative humidity of 100% and under a constantly dark condition. The observation was carried out every time after putting the larval ticks in the petri dish (after 5 minutes, 10 minutes, 15 minutes, 20 minutes, 30 minutes, 45 minutes, 1 hour, 2 hours, 4 hours, 6 hours and 24 hours). The number of knockdown ticks after the contact with the insecticidal compound was recorded. The foregoing operation was repeated twice.
The knockdown rate at each observation time was corrected by the following abbott correction formula. Then, a probit-time linear line was drawn, and the median knockdown time (KT50 value) was obtained. With respect to the KT50 values of the respective sample compounds, they were 9 minutes and 8 minutes with the above-mentioned compound No. 3, and 7.5 minutes and 6 minutes with the above-mentioned compound No. 9, while they were 80 minutes and 40 minutes with the following comparative compound A and 120 minutes and 80 minutes with the following comparative compound B. Corrected knockdown rate(%)=[(non-knockdown rate in control section−non-knockdown rate in treated section)/non-knockdown rate in control section]×100

[2] = system: Common Cutworm (Spodoptera litura); assay: Controlling effects against common cutworm, cabbage leaf dip; conditions: foliar, 120 h
Excerpt: Test on Controlling Effects Against Common Cutworm (Spodoptera litura)
A leaf segment of cabbage was dipped for about 10 seconds in an insecticidal solution prepared to bring the concentration of the compound of the present invention to 50 ppm or 3.1 ppm and dried in air. A wet filter paper was laid in a petri dish having a diameter of 9 cm, and the dried leaf segment of cabbage was placed thereon. Ten second-third instar larvae common cutworm were released therein and after putting a cover, left in a constant temperature chamber at 25° C. with lightening. Dead larvae were counted 5 days after the release, and the mortality was calculated by the following equation. Here, moribund insects were counted as dead insects. […] Mortality(%)=(number of dead insects/number of released insects)×100

[3] = system: Cat Flea (Ctenocephalides felis); assay: Controlling effects against cat flea, dry film in glass tube; conditions: 0.5 ml of 5.3 ppm acetone solution as dry film, adult fleas, 48 hours after exposure
Method: Test on Controlling Effects Against Cat Flea (Ctenocephalides felis)
0.5 ml of an acetone solution of the compound of the present invention prepared to be 5.3 ppm was dropped in a glass tube having a flat bottom (inner diameter: 2.6 cm, bottom area: 5.3 cm^2, height 12 cm). The acetone was evaporated at room temperature to have a dry film containing the compound of the present invention formed on the bottom surface. Ten adults of cat flea (not-yet-blood-sucked adults within five days after adult emergence) were put therein and exposed to the compound of the present invention. The test was carried out continuously three times.
Dead cat flea were counted 48 hours after the exposure and the mortality was obtained in the same manner as in the above Test Example 1.

Row | SMILES | median knockdown time (KT50 value) [1] | further results
1 | Cc1cc(Cl)cc(C(=O)NC(C)C2CC2)c1NC(=O)c1cc(C(F)(F)F)nn1-c1ncccc1Cl (stereo not drawn) [compound No. 3, N-[4-chloro-2-methyl-6-[[α-methyl-(cyclopropylmethyl)amino]carbonyl]-phenyl]-3-(trifluoromethyl)-1-(3-chloro-2-pyridyl)-1H-pyrazol-5-carboxamide] | 9 min and 8 min | 
2 | Cc1cccc(C(=O)NCC2CC2)c1NC(=O)c1cc(C(F)(F)F)nn1-c1ncccc1Cl [compound No. 1, N-[6-[[(cyclopropylmethyl)amino]carbonyl]-2-methylphenyl]-1-(3-chloro-2-pyridyl)-3-(trifluoromethyl)-1H-pyrazol-5-carboxamide] |  | mortality at 3.1 ppm [2]: ≥ 90%
3 | Cc1cc(Cl)cc(C(=O)NC(C)C)c1NC(=O)c1cc(C(F)(F)F)nn1-c1ncccc1Cl [comparative compound A, reference compound] | 80 min and 40 min | 
4 | Cc1cc(Cl)cc(C(=O)NC(C)C)c1NC(=O)c1cc(Br)nn1-c1ncccc1Cl [comparative compound B, reference compound] | 120 min and 80 min | 
5 | Cc1cc(Cl)cc(C(=O)NC(C)C2CC2)c1NC(=O)c1cc(Br)nn1-c1ncccc1Cl (stereo not drawn) [compound No. 9, N-[4-chloro-2-methyl-6-[[α-methyl-(cyclopropylmethyl)amino]carbonyl]-phenyl]-3-bromo-1-(3-chloro-2-pyridyl)-1H-pyrazol-5-carboxamide] | 7.5 min and 6 min | 
6 | CC(NC(=O)c1cc(Cl)cc(Br)c1NC(=O)c1cc(Br)nn1-c1ncccc1Cl)C1CC1 (stereo not drawn) [compound No. 16, N-[2-bromo-4-chloro-6-[[α-methyl-(cyclopropylmethyl)amino]carbonyl]-phenyl]-3-bromo-1-(3-chloro-2-pyridyl)-1H-pyrazol-5-carboxamide] |  | mortality [3]: at least 90%
